Counter-ions that a name gives are not always drawn. Like-named read-outs stand apart in the source and are kept apart here.
How the values were obtained:
formalin peritonitis = test: formalin-induced peritonitis, oral; type: in vivo; details: 100 mg/Kg
carrageenin peritonitis = test: carrageenin-induced peritonitis, oral; type: in vivo; details: 100 mg/Kg
carrageenin oedema [1] = test: carrageenin oedema, topical application; type: in vivo; details: 6% aqueous or alcoholic solutions
From the text: (§1) Further, it is to be noted that the antiinflammatory activity of EL-508, after its topical application, in 6% aqueous or alcoholic solutions in acute experimental processes, is summarized in the following table in comparison to 6% benzidamine HC1 as a reference drug: […]

kaolin oedema [2] = test: kaolin oedema, topical application; type: in vivo; details: 6% aqueous or alcoholic solutions
From the text: as §1

[3] = system: vascular permeability (xylol); test: vascular/capillary permeability, xylol-induced extravasation; type: in vivo; details: for reduction of extravasation induced by xylol: solution for topical application
From the text: (§2) In these tests Benzidamine HC1 lacked action.

ovoalbumin oedema [4] = test: ovoalbumin oedema, topical application; type: in vivo; details: 6% aqueous or alcoholic solutions
From the text: as §1

croton oil oedema = test: croton oil oedema, topical application; type: in vivo; details: 6% aqueous or alcoholic solutions
From the text: as §1

[5] = system: vascular permeability (chloroform); test: vascular/capillary permeability, chloroform-induced extravasation; type: in vivo; details: for reduction of extravasation induced by chloroform: solution for topical application
From the text: as §2

[6] = system: skin, genital and conjunctival mucous membranes; test: topical tolerance in human volunteers; type: in vivo; details: solution
ovoalbumin oedema [7] = test: ovoalbumin-induced acute oedema, oral route; type: in vivo; details: rat, dose which produces 50% of oedema inhibition
From the text: (§3) ED50 are indicated, these corresponding to the dose which produces 50% of oedema inhibition.

carrageenin abscess = test: carrageenin abscess, oral route; type: in vivo; details: rat, dose which produces 50% of oedema inhibition
From the text: as §3

peripheral blood flow = test: peripheral blood flow; details: in vivo
acute toxicity LD50, rat = details: in vivo
ulcerogenic action = details: in vivo
[8] = system: vaginitis of unknown ethiology or atrophic vaginitis and specific infectious vaginitis; test: clinical trials in vaginitis, vaginal solutions; type: in vivo, human; details: vaginal solutions at 5% and 0,2%
Protocol: Further, as to the pharmaceutical forms of solutions for vaginal applications at 5% and 0,2% various clinical trials were performed in patients with vaginitis of unknown ethiology or atrophic vaginitis and specific infectious vaginitis.

adrenalectomized rats = test: antiinflammatory effect in adrenalectomized rats; type: in vivo
[9] = system: skin, conjunctive and vaginal mucous membranes; test: topical tolerance of the aqueous solution after repeated applications; type: in vivo
carrageenin oedema [10] = test: carrageenin-induced acute oedema, oral route; type: in vivo; details: rat, dose which produces 50% of oedema inhibition
From the text: as §3

inflammatory processes = test: therapeutic index in the different experimental models; type: in vivo; details: vs reference compounds
formol oedema = test: formol-induced acute oedema, oral route; type: in vivo; details: rat, dose which produces 50% of oedema inhibition
From the text: as §3

[11] = system: chronic inflammatory processes; test: experimental chronic inflammatory processes; type: in vivo
[12] = system: skin, genital and conjunctival mucous membranes; design: species or system animals; details: in vivo
[13] = system: muscular-ligamentous pathological processes: luxations, sprains, contusions; test: clinical trial in muscular-ligamentous pathological processes, 6% aerosol; type: in vivo, human
From the text: Several clinical trials have been carried out with different pharmaceutical compositions with α-[[(2-hydroxy-1, 1-dimethyl-ethyl) amine]methyl]benzene methanol hydrocholride (EL-508) as active principle. In the 6% aerosol pharmaceutical composition the therapeutic action was studied in muscular-ligamentous pathological processes: luxations, sprains, contusions and the like.

acute inflammation = test: experiments of acute inflammation, oral and topical, summary; type: in vivo
From the text: In looking for a drug with intense topical antiinflammatory activity and good tolerance, the compound α-[[(2-hydroxy-1, 1-dimethyl-ethyl) amine]methyl]benzene methanol hydrochloride was syntheiszed and developed, and its chemical structure is completely different from that of conventional non-steroid anti-inflammatory drugs.

rats = test: chronic toxicity over six months, rats; type: in vivo; details: p.o., up to 100 mg/kg/day
dogs = test: chronic toxicity over six months, dogs; type: in vivo; details: p.o., up to 100 mg/kg/day
[14] = acute toxicity LD50, mouse; details: in vivo
kaolin oedema [15] = test: kaolin-induced acute oedema, oral route; type: in vivo; details: rat, dose which produces 50% of oedema inhibition
From the text: as §3

[16] = acute and chronic toxicity and tolerance, summary; details: in vivo

Compound: CCCCC1C(=O)N(c2ccccc2)N(c2ccc(O)cc2)C1=O (centres unmarked) [Oxyphenylbutazone, reference compound]
- percentage of inhibition, Formalin perit. (formalin peritonitis): 7,5%
- percentage of inhibition, Carrageenin perit. (carrageenin peritonitis): 58,8%

Compound: CN(C)CCCOc1nn(Cc2ccccc2)c2ccccc12 [Benzidamine HCl, reference compound]
- Inhibition % of oedemas, carrageenin (carrageenin oedema [1]): 7%
- Inhibition % of oedemas, Kaolin (kaolin oedema [2]): 0%
- percentage of inhibition, Formalin perit. (formalin peritonitis): 15,6%
- reduction of extravasation induced by xylol [3]: lacked action
- Inhibition % of oedemas, ovoalbumin (ovoalbumin oedema [4]): 42,0%
- Inhibition % of oedemas, Croton oil (croton oil oedema): 44%
- percentage of inhibition, Carrageenin perit. (carrageenin peritonitis): 31,3%
- reduction of extravasation induced by chloroform [5]: lacked action

Compound: CC(C)(CO)NCC(O)c1ccccc1 (stereo not drawn) [EL-508, α-[[(2-hydroxy-1,1-dimethyl-ethyl)amine]methyl]benzene methanol hydrochloride]
- topical tolerance [6]: perfectly tolerated
- ED50 (ovoalbumin oedema [7]): 16.7 mg/kg
- ED50 (carrageenin abscess): 9.4 mg/kg
- effect on peripheral blood flow (peripheral blood flow): did not modify at all peripheral blood flow
- LD50 (acute toxicity LD50, rat; ip): 350 mg/kg
- LD50 (acute toxicity LD50, rat; iv): 80 mg/kg
- LD50 (acute toxicity LD50, rat; po): 2080 mg/kg
- ulcerogenic action (ulcerogenic action): slight ulcerogenic action
- efficacy in vaginitis [8]: more efficent in these indications than iodic povidone and placebo
- Inhibition % of oedemas, carrageenin (carrageenin oedema [1]): 48%
- antiinflammatory effect (adrenalectomized rats): antiinflammatory effect is direct, without central or hormaonal stimulus
- topical tolerance [9]: well tolerated
- ED50 (carrageenin oedema [10]): 29.8 mg/kg
- therapeutic indices (inflammatory processes): considerably higher than for the reference compounds
- ED50 (formol oedema): 21.7 mg/kg
- Inhibition % of oedemas, Kaolin (kaolin oedema [2]): 47,5%
- activity on primary inflammatory phenomena [11]: demonstrated its activity on primary inflammatory phenomena
- percentage of inhibition, Formalin perit. (formalin peritonitis): 28,1%
- activity on formalin-induced peritonitis compared with reference drugs (formalin peritonitis; equal doses): more active than the reference drugs
- activity against capillary permeability increases induced by xylol ([3]; all the administration routes): highly active
- reduction of extravasation induced by xylol [3]: 50%
- topical tolerance [12]: perfectly tolerated
- therapeutic action [13]: therapeutic action higher than pyiridil-3-methyl amine salicylate and placebo
- Inhibition % of oedemas, ovoalbumin (ovoalbumin oedema [4]): 40,6%
- Inhibition % of oedemas, Croton oil (croton oil oedema): 30%
- percentage of inhibition, Carrageenin perit. (carrageenin peritonitis): 70,8%
- activity on carrageenin peritonitis compared with reference drugs (carrageenin peritonitis; equal doses): more active than the reference drugs
- antiinflammatory activity (acute inflammation; oral and topical route, acute inflammation): great antiinflammatory activity
- antiinflammatory effect compared with reference products (acute inflammation; vs fenylbutazone, pyridil-3-methylamine salicilate, benzidamine salicilate, etc.): higher than the referenced products used
- undesirable effects in chronic toxicity study (rats): no undesirable effects attributable to the product
- undesirable effects in chronic toxicity study (dogs): no undesirable effects attributable to the product
- LD50 ([14]; ip): 295 mg/kg
- LD50 ([14]; iv): 79 mg/kg
- LD50 ([14]; po): 1020 mg/kg
- ED50 (kaolin oedema [15]): 44.9 mg/kg
- acute and chronic toxicity [16]: acute and chronic toxicity was very low
- systematic and topical tolerance [16]: systematic and topical tolerance has been demonstrated
- undesirable side effects [16]: no undesirable side effects
- activity against capillary permeability increases induced by chloroform ([5]; all the administration routes): highly active
- reduction of extravasation induced by chloroform [5]: 50%

Compound: CCCCC1C(=O)N(c2ccccc2)N(c2ccccc2)C1=O [Fenilbutazone, reference compound]
- ED50 Ovoalbumin (ovoalbumin oedema [7]): Inactive
- ED50 (carrageenin abscess): 80 mg/kg
- ED50 (carrageenin oedema [10]): 200 mg/kg
